Where “and” joins values, the source holds several entries; their conditions need not be identical. Identical values can stand only once. Counter-ions that a name gives are not always drawn.
Legend:
B16 F0 murine melanoma = test: Biodistribution study by planar scintigraphic imaging (gamma camera), tumour uptake quantification; format: in vivo, C57BL6 male mice; conditions: i.v.
Procedure: Tumour Implantation. For transplantation, cells grown in monolayer culture to confluence were trypsinized and washed with phosphate buffer saline (PBS). They were resuspended in PBS and each mouse received 0.1 mL subcutaneously (3×10^5 cells) on the left flank in order to allow a tumour growth on the body side. Ten days later, the tumours became palpable with a percentage of tumour take of 98-100%.
The in vivo biodistribution and kinetic profile of each radiolabelled (iodine-125) compound have been studied in C57BL6 male mice bearing the B16 F0 murine melanoma by repeated planar scintigraphic imaging which allows the tumour uptake follow-up in the same animal.
Gamma Camera. In vivo radionuclide imaging was performed using a γ IMAGER (Biospace Mesures, Paris, France) especially dedicated for small animal, a scintigraphic camera with a continuous 4 mm thick×120 mm diameter CsI(Na) crystal, a position-sensitive Hamamatsu R3292 photomultiplier and a 10 cm field of view.
Imaging Protocol. On day 14 after tumour implantation (tumour weight 0.25±0.10 g) each [^125I]-radioiodinated compound was administered intravenously via a tail vein (0.1 μmol, range 3.7 to 7 MBq/animal) in three mice for each compound. At different times after administration (1, 3, 6, 24, 72 hours, 5, 7, 10 and 15 days), mice were anesthetized with 0.2 mL, for a 20 g mouse, of a ketamine-xylazine mixture in saline (1-0.25 mL for 5 mL) by i. p. administration, and repeated planar scintigraphic whole body imaging (mouse laying in anterior position on the camera field) were performed by an acquisition time of 10 min. For this study, the camera was equipped with a 1.8/0.2/20 collimator (hole diameter/septum thickness/height in mm).
Tumoural Radioactivity Quantification Approach. The injected activity to each mouse was determined from scintigraphic imaging of the syringe before and after the injection using the γ-IMAGER.
Regions of interest (ROIs) were delineated over the whole body image: whole body uptake area (or the various fixing areas, eyes, thyroid and abdomen) and one for the tumour uptake area. In the various ROIs, the activity (cpm) was quantified using the Biospace measures γ VISION+software. These values were normalized to the injected dose. For the tumour, the activity was also normalized to the tumour weight. Firstly, the volume was calculated from the two dimensions caliper measurement (Bissery, M. C.; Guenard, D.; Gueritte-Voegelin, F.; Lavelle, F. Experimental antitumour activity of taxotere (RP 56976, NSC 628503) a taxol analogue. Cancer res. 1991, 51, 4845-4852). Secondly, the weight was determined from the volume value corrected by a factor determined from a large panel of experiments (Weight g=volume mm^3×0.6). The data were expressed as % ID/g of B 16F0 melanoma tumour.

| melting point | Structure (SMILES) | Radioactive concentration in tumour (tumoural uptake) (B16 F0 murine melanoma; 1 H post injection) [% ID/g] | Radioactive concentration in tumour (tumoural uptake) (B16 F0 murine melanoma; 6 H post injection) [% ID/g] | Radioactive concentration in tumour (tumoural uptake) (B16 F0 murine melanoma; 24 H post injection) [% ID/g] | Radioactive concentration in tumour (tumoural uptake) (B16 F0 murine melanoma; 72 H post injection) [% ID/g] | Radioactive concentration in tumour (tumoural uptake) (B16 F0 murine melanoma; 120 H post injection) [% ID/g] | Radioactive concentration in tumour (tumoural uptake) (B16 F0 murine melanoma; 168 H post injection) [% ID/g] | Radioactive concentration in tumour (tumoural uptake) (B16 F0 murine melanoma; 240 H post injection) [% ID/g] | Radioactive concentration in tumour (tumoural uptake) (B16 F0 murine melanoma; 360 H (15 days) post injection) [% ID/g] | Radioactive concentration in tumour (tumoural uptake) (B16 F0 murine melanoma; 3 H post injection) [% ID/g] |
| --- | --- | --- | --- | --- | --- | --- | --- | --- | --- | --- |
|  | CCN(CCNC(=O)c1cnc2cc([125I])ccc2n1)CCOc1cccnc1F [[^125I]11, [^125I]N-[2-[N-ethyl-N-[2-(2-fluoropyridin-3-yloxy)ethyl]amino]ethyl]-6-iodoquinoxaline-2-carboxamide dihydrochloride salt] | 12.7 ± 2.3 | 18.8 ± 1.6 | 18.2 ± 0.6 | 10.3 ± 1.7 | 5.2 ± 1.2 | 3.2 ± 0.4 | 1.7 ± 0.4 | 0.6 ± 0.3 |  |
|  | CCN(C/C=C/CF)CCNC(=O)c1cnc2cc([125I])ccc2n1.Cl.Cl [[^125I]57] | 10.8 ± 2.3 | 13.9 ± 1.3 | 15.0 ± 0.5 | 10.0 ± 0.9 | 5.6 ± 1.0 | 3.3 ± 0.6 | 1.9 ± 0.3 | 1.3 ± 0.6 | 12.3 ± 2.8 |
|  | CCN(CCCc1ccnc(F)c1)CCNC(=O)c1cnc2cc([125I])ccc2n1.Cl.Cl [[^125I]53] | 9.1 ± 1.8 | 14.1 ± 3.9 | 16.3 ± 8.9 | 9.5 ± 5.9 | 5.1 ± 3.3 | 2.5 ± 2.1 | 1.4 ± 1.0 | 0.7 ± 0.5 | 9.3 ± 0.6 |
| 157 to 159 °C | CCN(CCNC(=O)c1ccc2cc(I)ccc2c1)CCOc1cccnc1F.Cl |  |  |  |  |  |  |  |  |  |
| 59 °C and 58 to 60 °C | CCN(CC)CCNC(=O)c1cc(F)c2cc(I)ccc2n1 [Compound 106, N-[2-(diethylamino)ethyl]-4-fluoro-6-iodoquinoline-2-carboxamide] |  |  |  |  |  |  |  |  |  |
|  | CCN(CCNC(=O)c1cnc2cc([125I])ccc2n1)Cc1ccnc(F)c1.Cl.Cl [[^125I]34] | 10.3 ± 6.6 | 15.4 ± 6.7 | 16.0 ± 7.4 | 10.0 ± 2.6 | 7.1 ± 1.8 |  | 1.9 ± 0.9 | 0.8 ± 0.5 | 12.0 ± 4.8 |
|  | CCN(CCNC(=O)c1ccc2cncc([125I])c2n1)CCOc1cccnc1F.Cl.Cl [[^125I]74] | 5.6 ± 1.7 | 5.3 ± 2.4 | 5.2 ± 2.0 | 3.3 ± 2.0 | 1.6 ± 0.7 | 1.1 ± 0.5 | 0.5 ± 0.3 | 0.4 ± 0.3 | 5.5 ± 2.4 |
|  | CCN(CCNC(=O)c1cnc2cc([125I])ccc2n1)CCNc1cccc(F)n1 [[^125I]17, [^125I]N-[2-[N-ethyl-N-[2-[(6-fluoropyridin-2-yl)amino]ethyl]amino]ethyl]-6-iodoquinoxaline-2-carboxamide dihydrochloride salt] | 13.1 ± 6.8 | 12.5 ± 3.9 | 8.6 ± 0.9 | 5.7 ± 1.5 | 2.6 ± 0.4 | 1.5 ± 0.2 | 0.8 ± 0.1 | 0.4 ± 0.2 | 13.7 ± 6.1 |
|  | CCN(CC)CCNC(=O)c1cc(F)c2cc([125I])ccc2n1 [[^125I]106, [^125I]N-[2-(diethylamino)ethyl]-4-fluoro-6-iodoquinoline-2-carboxamide] | 6.0 ± 1.3 | 9.5 ± 1.8 | 8.4 ± 0.8 | 4.9 ± 1.2 | 3.0 ± 0.1 | 2.3 ± 0.6 | 1.5 ± 0.1 | 0.7 ± 0.1 | 8.0 ± 0.9 |
| 80 °C and 79 to 81 °C | CCN(CC)CCNC(=O)c1cc(I)cc2c(F)ccnc12 [Compound 102, N-[2-(diethylamino)ethyl]-4-fluoro-6-iodoquinoline-8-carboxamide] |  |  |  |  |  |  |  |  |  |
|  | CCN(CCNC(=O)c1cccc2nc3cc([125I])ccc3nc12)CCOc1cccnc1F.Cl.Cl [[^125I]85] | 11.4 ± 1.7 | 13.8 ± 2.5 | 13.8 ± 2.3 | 5.8 ± 0.2 | 3.7 ± 0.6 | 2.0 ± 0.9 | 1.2 ± 0.5 | 0.7 ± 0.4 | 12.3 ± 1.7 |
|  | CCN(CC)Cc1ccnc(F)c1CNC(=O)c1cnc2cc([125I])ccc2n1.Cl.Cl [[^125I]92] | 5.6 ± 2.0 | 6.7 ± 1.9 | 6.4 ± 1.8 | 4.1 ± 1.5 | 2.4 ± 0.7 | 1.5 ± 0.4 | 0.8 ± 0.3 | 0.7 ± 0.1 | 6.5 ± 3.2 |
|  | CCN(CCNC(=O)c1cnc2cc([125I])ccc2n1)CCc1ccnc(F)c1.Cl.Cl [[^125I]47] | 12.1 ± 4.1 | 14.5 ± 6.6 | 11.2 ± 2.5 | 7.7 ± 0.9 | 5.2 ± 1.7 | 3.0 ± 1.0 | 1.6 ± 0.5 | 1.1 ± 0.3 | 13.3 ± 6.0 |
| 131 to 133 °C (dec.) | CCN(CCNC(=O)c1ccc2cncc(I)c2n1)CCOc1cccnc1F.Cl.Cl |  |  |  |  |  |  |  |  |  |
|  | CCN(CCF)CCNC(=O)c1cnc2cc([125I])ccc2n1 [[^125I]26, [^125I]N-[2-[[N-ethyl-N-(2-fluoroethyl)]amino]ethyl]-6-iodoquinoxaline-2-carboxamide dihydrochloride salt] | 21.4 ± 4.9 | 25.0 ± 8.0 | 24.8 ± 6.5 |  | 8.4 |  | 1.6 | 0.6 |  |
|  | CCN(CCNC(=O)c1ccnc(F)c1)CCNC(=O)c1cnc2cc([125I])ccc2n1.Cl.Cl [[^125I]40] | 9.6 ± 0.7 | 12.1 ± 3.2 | 12.1 ± 4.6 | 9.6 ± 7.1 | 5.1 ± 3.3 |  |  |  | 8.8 ± 1.6 |
